Four cell lines from the supplement of paper PMC10307832 can be followed below.

Common to all, as to assay: relative viability (nuclei count vs DMSO), 5 days (fraction); higher = more cells survive
Compound in experiment [1]: C[C@H]([C@@H](C(=O)N)NC(=O)[C@@H]1CSSC[C@@H](C(=O)N[C@H](C(=O)N[C@@H](C(=O)N[C@H](C(=O)N1)CCCCN)CC2=CNC3=CC=CC=C32)CC4=CC=C(C=C4)O)NC(=O)[C@@H](CC5=CC=CC=C5)N)O [CAP-232] + CC(C)C[C@H](NC(=O)[C@H](Cc1ccccc1)NC(=O)c1cnccn1)B(O)O [Bortezomib] (partner 0.002 µM)
In outline:
(§1)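 Cells from lung cancer lines were seeded into 1536-well plates and, one day later, dosed by pin tool. Treatments were either a single drug or a fixed dose of an anchor drug with five library-drug doses (not always all listed) in √10 steps. After 5 days, nuclei were stained in a one-step fixation (final 0.05% Triton X-100, 1% formaldehyde, 1 ug/ml Hoechst) and counted on 4× images, and relative viability is the treated-to-vehicle nuclei ratio, as the median of duplicate plates.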

Compound in experiment [2]: C[C@H]([C@@H](C(=O)N)NC(=O)[C@@H]1CSSC[C@@H](C(=O)N[C@H](C(=O)N[C@@H](C(=O)N[C@H](C(=O)N1)CCCCN)CC2=CNC3=CC=CC=C32)CC4=CC=C(C=C4)O)NC(=O)[C@@H](CC5=CC=CC=C5)N)O [CAP-232] + COc1cccc2cc(-c3nc([C@H]4CC[C@H](C(=O)O)CC4)n4ncnc(N)c34)[nH]c12 [OSI-027] (partner 0.5 µM)
In outline:
as §1

Compound in experiment [3]: C[C@H]([C@@H](C(=O)N)NC(=O)[C@@H]1CSSC[C@@H](C(=O)N[C@H](C(=O)N[C@@H](C(=O)N[C@H](C(=O)N1)CCCCN)CC2=CNC3=CC=CC=C32)CC4=CC=C(C=C4)O)NC(=O)[C@@H](CC5=CC=CC=C5)N)O [CAP-232] + C[C@@H](Oc1cc(-c2cnn(C3CCNCC3)c2)cnc1N)c1c(Cl)ccc(F)c1Cl [Crizotinib] (partner 1 µM)
In outline:
as §1

Compound in experiment [4]: C[C@H]([C@@H](C(=O)N)NC(=O)[C@@H]1CSSC[C@@H](C(=O)N[C@H](C(=O)N[C@@H](C(=O)N[C@H](C(=O)N1)CCCCN)CC2=CNC3=CC=CC=C32)CC4=CC=C(C=C4)O)NC(=O)[C@@H](CC5=CC=CC=C5)N)O [CAP-232] + Nc1nc2[nH]cc(CCc3ccc(C(=O)N[C@@H](CCC(=O)O)C(=O)O)cc3)c2c(=O)[nH]1 [Pemetrexed] (partner 0.2 µM)
In a few lines: as §1

Compound in experiment [5]: C[C@H]([C@@H](C(=O)N)NC(=O)[C@@H]1CSSC[C@@H](C(=O)N[C@H](C(=O)N[C@@H](C(=O)N[C@H](C(=O)N1)CCCCN)CC2=CNC3=CC=CC=C32)CC4=CC=C(C=C4)O)NC(=O)[C@@H](CC5=CC=CC=C5)N)O [CAP-232] + Nc1ncn([C@H]2C[C@H](O)[C@@H](CO)O2)c(=O)n1 [Decitabine] (partner 2 µM)
In outline:
as §1

Turning to RERF-LC-KJ, the relative viability in experiment [1] (first compound 0.4 µM) came to 1.16; in experiment [1] (first compound 1.265 µM), 1.15; in experiment [1] (first compound 4 µM) it was 1.44; in experiment [1] (first compound 12.65 µM), 0.987; in experiment [2] (first compound 0.4 µM), 0.588; in experiment [2] (first compound 1.265 µM), 0.533. Besides, the relative viability in experiment [2] (first compound 4 µM) turned out to be 0.486; in experiment [2] (first compound 12.65 µM) it was 0.231; in experiment [3] (first compound 0.4 µM), 0.944; in experiment [3] (first compound 1.265 µM), 0.919; in experiment [3] (first compound 4 µM) it was 0.851; in experiment [3] (first compound 12.65 µM), 0.829. Besides, the relative viability was 0.499 in experiment [4] (first compound 0.4 µM); 0.534 in experiment [4] (first compound 1.265 µM); 0.441 in experiment [4] (first compound 4 µM); 0.407 in experiment [4] (first compound 12.65 µM); 0.659 in experiment [5] (first compound 0.4 µM); 0.758 in experiment [5] (first compound 1.265 µM). Moreover, the results for the relative viability in experiment [5] (first compound 4 µM) and in experiment [5] (first compound 12.65 µM) were 0.79 and 0.41, respectively.
On to SK-LU-1, for which the relative viability in experiment [1] (first compound 0.4 µM) turned out to be 1.53; in experiment [1] (first compound 1.265 µM), 1.04; in experiment [1] (first compound 4 µM), 1.2; in experiment [1] (first compound 12.65 µM) it was 1.3; in experiment [2] (first compound 0.4 µM) it was 0.329; in experiment [2] (first compound 1.265 µM) it was 0.342. In addition, the relative viability in experiment [2] (first compound 4 µM) was 0.308; in experiment [2] (first compound 12.65 µM), 0.332; in experiment [3] (first compound 0.4 µM), 0.689; in experiment [3] (first compound 1.265 µM), 0.988; in experiment [3] (first compound 4 µM), 0.781; in experiment [3] (first compound 12.65 µM), 0.912. In addition, the relative viability in experiment [4] (first compound 0.4 µM) worked out at 0.916; in experiment [4] (first compound 1.265 µM), 0.996; in experiment [4] (first compound 4 µM), 1.03; in experiment [4] (first compound 12.65 µM), 0.658; in experiment [5] (first compound 0.4 µM), 0.628; in experiment [5] (first compound 1.265 µM), 0.622. In addition, the relative viability was found to be 0.768 in experiment [5] (first compound 4 µM) and 0.469 in experiment [5] (first compound 12.65 µM).
Consider SW 1573, for which the relative viability worked out at 0.951 in experiment [1] (first compound 0.4 µM); 1.03 in experiment [1] (first compound 1.265 µM); 0.927 in experiment [1] (first compound 4 µM); 0.974 in experiment [1] (first compound 12.65 µM); 0.612 in experiment [2] (first compound 0.4 µM); 0.785 in experiment [2] (first compound 1.265 µM). For the same cell line, the relative viability is 0.678 in experiment [2] (first compound 4 µM); 0.111 in experiment [2] (first compound 12.65 µM); 0.785 in experiment [3] (first compound 0.4 µM); 0.803 in experiment [3] (first compound 1.265 µM); 0.642 in experiment [3] (first compound 4 µM); 0.81 in experiment [3] (first compound 12.65 µM). Also, the relative viability in experiment [4] (first compound 0.4 µM) turned out to be 0.801; in experiment [4] (first compound 1.265 µM), 0.879; in experiment [4] (first compound 4 µM), 0.789; in experiment [4] (first compound 12.65 µM) it was 0.103; in experiment [5] (first compound 0.4 µM), 0.48; in experiment [5] (first compound 1.265 µM), 0.534. The relative viability in experiment [5] (first compound 4 µM) came out at 0.45; in experiment [5] (first compound 12.65 µM), 0.169.
In the case of UMC-11, the relative viability was 1.11 in experiment [1] (first compound 0.4 µM); 0.719 in experiment [1] (first compound 1.265 µM); 1.11 in experiment [1] (first compound 4 µM); 1.1 in experiment [1] (first compound 12.65 µM); 0.474 in experiment [2] (first compound 0.4 µM); 0.484 in experiment [2] (first compound 1.265 µM). For the same cell line, the relative viability in experiment [2] (first compound 4 µM) turned out to be 0.517; in experiment [2] (first compound 12.65 µM), 0.39; in experiment [3] (first compound 0.4 µM), 0.585; in experiment [3] (first compound 1.265 µM), 0.786; in experiment [3] (first compound 4 µM), 0.681; in experiment [3] (first compound 12.65 µM), 0.639. The relative viability in experiment [4] (first compound 0.4 µM) amounted to 0.824; in experiment [4] (first compound 1.265 µM), 0.843; in experiment [4] (first compound 4 µM), 0.821; in experiment [4] (first compound 12.65 µM) it was 0.613; in experiment [5] (first compound 0.4 µM), 0.55; in experiment [5] (first compound 1.265 µM), 0.55. Also, the relative viability in experiment [5] (first compound 4 µM) amounted to 0.581; in experiment [5] (first compound 12.65 µM), 0.671.
